According to ChEMBL document CHEMBL3526061, “Glucuronidation of edaravone by human liver and kidney microsomes: biphasic kinetics and identification of UGT1A9 as the major UDP-glucuronosyltransferase isoform” (Drug Metab Dispos, 2012):

Key:
Assay type in all cases: ADME
[1] = target: T1, UDP-glucuronosyltransferase 1A1 (Homo sapiens, UniProt P22309); experiment: Activity of human recombinant UGT1A1 expressed in insect cells assessed as intrinsic clearance for enzyme mediated glucuronidation per mg protein by LC-MS/MS method
T1 sequence (P22309 whole entry): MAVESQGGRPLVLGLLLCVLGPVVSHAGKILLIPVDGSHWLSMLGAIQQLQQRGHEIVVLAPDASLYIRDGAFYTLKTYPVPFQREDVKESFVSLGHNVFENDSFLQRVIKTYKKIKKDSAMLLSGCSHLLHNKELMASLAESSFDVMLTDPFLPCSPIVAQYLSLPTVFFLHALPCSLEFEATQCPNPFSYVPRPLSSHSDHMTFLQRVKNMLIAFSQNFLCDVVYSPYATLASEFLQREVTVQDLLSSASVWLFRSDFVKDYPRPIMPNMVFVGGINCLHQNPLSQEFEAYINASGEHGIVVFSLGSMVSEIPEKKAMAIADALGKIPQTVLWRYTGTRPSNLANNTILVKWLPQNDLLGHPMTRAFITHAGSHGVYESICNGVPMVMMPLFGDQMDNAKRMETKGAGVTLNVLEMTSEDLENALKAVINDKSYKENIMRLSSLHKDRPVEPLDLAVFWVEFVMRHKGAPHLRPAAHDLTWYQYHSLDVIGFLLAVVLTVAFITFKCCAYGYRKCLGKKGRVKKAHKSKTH

[2] = target: T2, UDP-glucuronosyltransferase 2B7 (Homo sapiens, UniProt P16662); experiment: Activity of human recombinant UGT2B7 expressed in insect cells assessed as intrinsic clearance for enzyme mediated glucuronidation per mg protein by LC-MS/MS method
T2 sequence (P16662 whole entry): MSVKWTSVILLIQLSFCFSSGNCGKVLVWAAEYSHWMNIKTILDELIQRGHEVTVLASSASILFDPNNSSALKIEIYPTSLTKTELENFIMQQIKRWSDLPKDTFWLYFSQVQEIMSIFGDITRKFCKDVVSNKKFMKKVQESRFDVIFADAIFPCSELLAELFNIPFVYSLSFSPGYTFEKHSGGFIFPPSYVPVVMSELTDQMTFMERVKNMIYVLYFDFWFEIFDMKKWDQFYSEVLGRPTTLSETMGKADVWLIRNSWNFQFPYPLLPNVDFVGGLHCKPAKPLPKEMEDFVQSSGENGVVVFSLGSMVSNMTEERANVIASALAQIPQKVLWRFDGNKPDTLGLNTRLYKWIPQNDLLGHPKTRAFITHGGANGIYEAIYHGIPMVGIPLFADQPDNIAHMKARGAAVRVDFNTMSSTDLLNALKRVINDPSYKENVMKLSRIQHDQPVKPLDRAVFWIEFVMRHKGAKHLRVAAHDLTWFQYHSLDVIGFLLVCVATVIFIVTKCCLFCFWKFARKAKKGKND

Liver microsome [3] = experiment: Drug metabolism in human liver microsomes assessed as drug glucuronidation in presence of 50 estradiol by LC-MS/MS method
[4] = Drug metabolism in human kidney microsomes assessed as intrinsic clearance for drug glucuronidation per mg tissue in absence of BSA by LC-MS/MS method
[5] = target: T3, UDP-glucuronosyltransferase 1A9 (Homo sapiens, UniProt O60656); experiment: Activity of human recombinant UGT1A9 expressed in insect cells assessed as enzyme mediated glucuronidation in presence of 100 to 1000 uM propofol by LC-MS/MS method
T3 sequence (O60656 whole entry): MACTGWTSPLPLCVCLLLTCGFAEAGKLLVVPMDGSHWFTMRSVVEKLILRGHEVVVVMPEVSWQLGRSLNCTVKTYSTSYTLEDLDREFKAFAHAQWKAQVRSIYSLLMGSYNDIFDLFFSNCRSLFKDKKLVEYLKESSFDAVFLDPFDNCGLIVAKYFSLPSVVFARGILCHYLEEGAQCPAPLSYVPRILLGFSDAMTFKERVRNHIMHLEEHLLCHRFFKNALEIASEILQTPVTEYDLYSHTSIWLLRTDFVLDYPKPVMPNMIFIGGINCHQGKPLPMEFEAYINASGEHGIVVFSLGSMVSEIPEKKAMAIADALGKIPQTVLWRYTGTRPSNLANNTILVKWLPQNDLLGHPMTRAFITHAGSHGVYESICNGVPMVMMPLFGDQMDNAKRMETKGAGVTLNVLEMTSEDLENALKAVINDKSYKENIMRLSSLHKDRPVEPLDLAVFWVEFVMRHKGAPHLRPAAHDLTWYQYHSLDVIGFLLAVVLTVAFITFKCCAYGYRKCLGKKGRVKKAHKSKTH

Liver microsome [6] = experiment: Drug metabolism in human liver microsomes assessed as intrinsic clearance for drug glucuronidation per mg tissue in absence of BSA by LC-MS/MS method
[7] = target: T1, UDP-glucuronosyltransferase 1A1; experiment: Activity of human recombinant UGT1A1 expressed in insect cells assessed as enzyme mediated glucuronidation at 500 uM by LC-MS/MS method
[8] = target: T2, UDP-glucuronosyltransferase 2B7; experiment: Activity of human recombinant UGT2B7 expressed in insect cells assessed as enzyme mediated glucuronidation at 500 uM by LC-MS/MS method
[9] = target: T4, UDP-glucuronosyltransferase 2B15 (Homo sapiens, UniProt P54855); experiment: Activity of human recombinant UGT2B15 expressed in insect cells assessed as enzyme mediated glucuronidation at 500 uM by LC-MS/MS method
T4 sequence (P54855 whole entry): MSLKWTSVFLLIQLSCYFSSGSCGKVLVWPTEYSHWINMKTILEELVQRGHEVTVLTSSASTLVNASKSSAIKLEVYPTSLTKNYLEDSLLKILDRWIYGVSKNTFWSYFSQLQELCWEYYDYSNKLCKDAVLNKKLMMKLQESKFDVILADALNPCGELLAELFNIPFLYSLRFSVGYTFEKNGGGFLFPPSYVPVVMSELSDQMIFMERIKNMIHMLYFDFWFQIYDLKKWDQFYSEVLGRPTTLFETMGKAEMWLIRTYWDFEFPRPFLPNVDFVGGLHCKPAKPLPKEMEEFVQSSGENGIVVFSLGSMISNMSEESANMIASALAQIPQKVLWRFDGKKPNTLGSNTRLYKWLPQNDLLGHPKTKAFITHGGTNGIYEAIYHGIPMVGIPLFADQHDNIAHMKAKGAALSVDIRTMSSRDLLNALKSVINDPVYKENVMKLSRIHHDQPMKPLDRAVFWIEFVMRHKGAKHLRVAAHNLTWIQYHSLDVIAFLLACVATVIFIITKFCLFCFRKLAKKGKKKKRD

CC1=NN(c2ccccc2)C(=O)C1 [EDARAVONE]
CL(high) [1]: 0.2 µL/min/mg | CL [2]: 0.7 µL/min/g | Drug metabolism (Liver microsome [3]): metabolite_not_detected | CL(high) [4]: 45.3 µL/min/mg | CL(low) [4]: 1.8 µL/min/mg | Drug metabolism [5]: metabolite_not_detected | CLHH (Liver microsome [6]): 8.4 µL/min/g | CLHL (Liver microsome [6]): 1.3 µL/min/mg | Drug metabolism [7]: metabolite_detected | Drug metabolism [8]: metabolite_detected | Drug metabolism [9]: metabolite_detected
